Where two headings read alike, the source gives them in different places.
How the values were obtained:
γ-secretase complex = γ-secretase complex (Homo sapiens, UniProt P49768); test: APP-C99 counter assay (GSI reporter assay); type: cell-based; design: AUC APP: scale not given here; settings: for Hill-slope / curve fit information: 14p APP assay DR; for AUC APP: area under the 14-point dose-response curve, replicates averaged; for remaining activity at 10 µM / remaining activity at 25 µM / remaining activity at […]: 24 h, APP-C99 counter assay, read-out: 3p-DR in % of DMSO counter; for remaining activity at […]: 1,25µM
Experimental: To this end, we used a previously established reporter gene-based GSI assay (APP-C99) (Fig. 3A), which measures γ-secretase activity through cleavage of amyloid precursor protein (APP), another protein processed by the γ-secretase complex[24]
Plasmids for APP and luciferase are described in[24] and the renilla plasmid described above generated for this project was used to normalize firefly values. 24 h post transfection cells were seeded on compound plates and cells were cultivated for 24 h before luciferase signals were read, as described.
Two-fold concentrations of compounds were diluted in 10 µl cell culture medium and brought to one-fold by seeding 10 µl containing 4000 cells of the respective cell type on each well of a 384-well plate, as described above. Analogous to the previous assays, all plates contained one DMSO and DAPT control column with the Notch reporter cell line (#A1-11) and a DMSO only and Notch inhibitor control plate was read before the measuring the screening plates. In addition, DAPT and DMSO were spotted in a dose response fashion, and a minimum of four replicates were read. Dose-responses of compounds were recorded in triplicates for each concentration reading out the dual luciferase reporters, as described above. Dose response assays were read together in one session. To measure compound effects, the different assays dose–response curves were fitted using the log(inhibitor) vs. response – Variable slope (model: Y = Bottom + (Top–Bottom)/(1 + 10^((LogIC50-X)*HillSlope)) equation.
A DMSO plate was read before measuring luciferase activity of compound spotted plates. APP firefly luciferase reporter assays were read with a signal integration time of 0.1 s, instead of 0.5 s used for the Notch reporter to reduce signal overlap between wells. […] The area-under-the-curve (AUC) was calculated on dose–response curves using Graphpad Prism.

Notch signalling = test: Notch reporter assay (12xCSL firefly luciferase / renilla luciferase, HEK293T Notch1ΔE reporter cell line clone #A1-11); type: cell-based; design: AUC Notch: scale not given here; settings: for Bottom (Emax): Emax indicated independent from assay constraints, in % (unit assumed); for AUC Notch: area under the 14-point dose-response curve, replicates averaged; for IC50 / activity at 10 µM / activity at 25 µM / activity: Homo sapiens, HEK-293T; for activity: 1,25µM
Source text: To identify novel Notch inhibitors in an unbiased manner, we generated a novel Notch reporter construct, which records the level of Notch signalling immediately downstream of receptor activation rather than further downstream in the signalling cascade, for example at the level of Hes and Hey proteins (Fig. 1B). […] The reporter construct carries piggy-bac sequences at both ends of the promoter-reporter cassette as well as cSH4 insulator elements to reduce transcriptional noise[21] and was transfected into HEK293T cells. To achieve a robust level of Notch receptor activity in the HEK293T reporter cell line and to confine the search for inhibitors to compounds affecting the receptor function and eliminating the need for ligand activation, a truncated ligand-independent version of the Notch1 receptor, mimicking an S2-cleaved Notch1 receptor (Notch1ΔE) and spontaneously activated by S3-cleavage[22] (Fig. 1C) was introduced into the cell line carrying the reporter construct (Fig. 1D). In addition, an HSV-TK-renilla luciferase plasmid was introduced into the cell line as an internal control for normalisation of the reporter expression (Fig. 1D).
A de novo Notch reporter construct, composed of six dimeric CSL binding sites linked to a basic b-globin promoter and followed by a firefly luciferase gene and a PEST degradation domain was synthesised (GeneArt). The construct was stably introduced into HEK293T cells, and zeocin (0.1 mg/ml) or Puromycin (0.05 mg/ml (ThermoFisher, cat #R25001, #A1113803) were used as selection markers. A clonal cell line (clone #A1) with robust renilla expression and enhanced firefly luciferase expression upon transient transfection of Notch1 ICD or Notch1ΔE constructs was selected, and a UB6 promoter-Notch1DE construct was stably introduced into this cell line using Blasticidin (0.1 mg/ml; ThermoFisher, cat #A1113903) as a selection marker. Stable cell lines were generated by serial dilution and only clonal colonies were selected for further evaluation. To measure luciferase reporter activity, cells were washed in cold PBS, detached, and collected in pre-warmed cell culture medium and centrifugated for five min at 200xg. The cell pellet was resuspended in medium, cells were counted, and 4,000 cells were seeded in each well of a white 384 well plate (Corning #3670) in 20 µl medium containing either DMSO or the GSI DAPT (N-[N-(3,5-Difluorophenacetyl)-L-alanyl]-S-phenylglycine t-butyl ester, Sigma-Aldrich, cat #565784-M) and incubated for 24 h. The efficacy of the reporter gene system was determined by monitoring the level of luciferase activation in the absence or presence of different amounts of DAPT in several cell clones. Luciferase activity was assessed using the dual-GLO luciferase detection kit from Promega (cat # E2920), following the manufacturer’s instructions. A minimum of two technical replicates were measured per clone using a SpectraMaxi3 plate reader (Molecular Devices). Reporter activity of different clones and in response to DAPT was assessed by normalising firefly (Notch activity) to renilla luciferase signals. Normalised signals of individual clones cultivated in DMSO were then compared to corresponding signals generated with DAPT-treated cells. The cell clone with the strongest signal to control ratio (DMSO to DAPT) was then selected for further exploration (clone #A1-11).
37,966 compounds were spotted by the compound center at SciLifeLab (https://www.scilifelab.se/) on a total of 120 plates (Greiner #781080) at a fixed concentration of 10 µM and the screening process spanned five consecutive sessions. The layout of each plate contained one column for DMSO and one for DAPT controls to determine the quality and reliability of the data. DAPT controls were spotted at 10 µM and DMSO was spotted in an equimolar volume. In addition, plates spotted with only DMSO were utilized to investigate the impact of plate effects before and after each session. […]

[1] = bottom constrained to Emax of positive control LY-411575
[2] = 14p Notch assay DR, bottom constrained to Emax of positive control DAPT, read-out: approximated IC50
[3] = 14p Notch assay DR, log10 value, bottom constrained to Emax of positive control DAPT, read-out: approximated LogIC50 (converted)
[4] = 10 µM, primary screen, 24 h, unit from Fig. 2 legend, read-out: Primary screen at 10 µM (Notch reporter signal)
[5] = 10 µM, three-dose confirmation screen, unit from Fig. 2 legend, read-out: Hit confirmation at 10 µM (Notch reporter signal)
[6] = 10µM, 3-point DR confirmation screen, Notch reporter assay, read-out: inhibitor ratio in % of DMSO in 3 point DR
[7] = 10 µM, sheet conf vs counter 10 µM, same values as 3-point DR confirmation screen, read-out: Confirmation screen
[8] = 25µM, 3-point DR confirmation screen, Notch reporter assay, read-out: inhibitor ratio in % of DMSO in 3 point DR
[9] = 25 µM, Notch reporter 3-point dose-confirmation assay, sheet "conf vs counter 25 µM", read-out: Confirmation screen
[10] = 3-point DR confirmation screen, Notch reporter assay, read-out: inhibitor ratio in % of DMSO in 3 point DR
[11] = 14-point dose-response, Fig. 4, read-out: approximated IC50, Notch reporter assay

Structure (SMILES)	Hill-slope (γ-secretase complex; [1])	AUC APP (γ-secretase complex)	remaining activity at 10 µM (γ-secretase complex) [%]	remaining activity at 25 µM (γ-secretase complex) [%]	remaining activity at […] (γ-secretase complex) [%]	IC50 (Notch signalling; [2]) [µM]	IC50 (Notch signalling; [3]) [µM]	IC50 (Notch signalling; [11]) [µM]	Bottom (Emax) (Notch signalling; 14p Notch assay DR)	AUC Notch (Notch signalling)	activity at 10 µM (Notch signalling; [4]) [%]	activity at 10 µM (Notch signalling; [5]) [%]	activity at 10 µM (Notch signalling; [6]) [%]	activity at 10 µM (Notch signalling; [7]) [%]	activity at 25 µM (Notch signalling; [8]) [%]	activity at 25 µM (Notch signalling; [9]) [%]	activity (Notch signalling; [10]) [%]	further results
O=C1NC(c2cccnc2)Nc2sc3c(c21)CCCC3 (centres unmarked) [CBK072377]	0.0091	497.7	–	–	–	–	–	–	89.1	364.0	–	–	–	–	–	–	–	approximated IC50, Notch reporter assay (Notch signalling; 14-point dose-response, Fig. 4): Indeterminate
COc1cccc(Nc2nc(-c3cccnc3)cn3ccnc23)c1 [CBK103068]	0.0551	517.0	–	–	–	> 40	> 40	–	69.8	335.0	–	–	–	–	–	–	–	–
Cc1c(C(C)NC(=O)c2[nH]c3ccccc3c2Cl)cnn1C (centres unmarked) [CBK246640]	0.0225	737.0	–	–	–	–	–	–	91.1	612.0	–	–	–	–	–	–	–	approximated IC50, Notch reporter assay (Notch signalling; 14-point dose-response, Fig. 4): Indeterminate
Cc1ccc2cc(C(=O)NC(C)c3cnn(C)c3C)[nH]c2c1 (centres unmarked) [CBK246728]	–	720.8	–	–	–	> 5	> 5	> 5	–	605.0	–	–	–	–	–	–	–	curve fit information (γ-secretase complex; [1]): IC50 indeterminate
CC(=O)Oc1cccc(N2C(=O)c3ccc(Oc4cccc(N)c4)cc3C2=O)c1 [CBK261099]	-2.8	428.7	80.5	59.7	124	1.8	1.58	–	18.6	282.0	31.5	28.1	28.1	28.1	20.3	20.3	87.9	–

The next lines start with results.

Hill-slope (γ-secretase complex; [1])	AUC APP (γ-secretase complex)	remaining activity at 10 µM (γ-secretase complex) [%]	remaining activity at 25 µM (γ-secretase complex) [%]	remaining activity at […] (γ-secretase complex) [%]	IC50 (Notch signalling; [2]) [µM]	IC50 (Notch signalling; [3]) [µM]	IC50 (Notch signalling; [11]) [µM]	Structure (SMILES)	Bottom (Emax) (Notch signalling; 14p Notch assay DR)	AUC Notch (Notch signalling)	activity at 10 µM (Notch signalling; [4]) [%]	activity at 10 µM (Notch signalling; [5]) [%]	activity at 10 µM (Notch signalling; [6]) [%]	activity at 10 µM (Notch signalling; [7]) [%]	activity at 25 µM (Notch signalling; [8]) [%]	activity at 25 µM (Notch signalling; [9]) [%]	activity (Notch signalling; [10]) [%]	further results
0.00761	491.7	–	–	–	–	–	–	c1ccc(Nc2nc(-c3ccc(Oc4ccccc4)cc3)cn3ccnc23)cc1 [CBK066406]	88.8	367.0	–	–	–	–	–	–	–	–
0.0527	758.8	153	158	102	3.5	3.16	–	COc1cccc(CNc2ccc(N3CCOCC3)cc2)c1OCc1ccccc1F [CBK074406]	–	518.0	56.4	68	68	68	66.7	66.7	98.6	Hill-slope (γ-secretase complex; bottom constrained to Emax of positive control CB-103): 0.00965; IC50 (Notch signalling; 14p Notch assay DR, averaged when replicate measurements were available, read-out: averaged IC50s): 3.5 µM; IC50 (Notch signalling; 14p Notch assay DR, bottom constrained to Emax of positive control RO4929097, read-out: approximated IC50): 3.5 µM; IC50 (Notch signalling; 14p Notch assay DR, log10 value, bottom constrained to Emax of positive control RO4929097, read-out: approximated LogIC50 (converted)): 3.16 µM
0.0876	533.6	–	–	–	–	–	> 40	Cc1ccccc1C(=O)NC(=S)Nc1sc2c(c1C(N)=O)CCC2 [CBK262107]	90.8	379.0	–	–	–	–	–	–	–	–
–	735.5	–	–	–	10	10	> 5	CCn1ncc(CN(C)C(=O)c2cc(-c3cccnc3)nc3ccc(Cl)cc23)c1C [CBK276708]	29.2	559.0	–	–	–	–	–	–	–	curve fit information (γ-secretase complex; [1]): IC50 indeterminate
0.0761	538.6	165	197	113	5.1	5.01	–	CCOc1ccccc1-c1ccccc1NC(=O)c1ccc2c(c1)ncn2C1CC1 [CBK285808]	26.5	300.0	35.1	64.7	64.7	64.7	45.7	45.7	102	–
